Results published in patent publication US7462598B2, “Antimicrobial theta defensins, analogs thereof, and methods of use” (priority 2002, dated 2008).
Bridge positions count the residues as written; N and C are the ends. Square brackets hold non-standard residues; d marks the D form. Peptide text beside a SMILES is read from it. hSer = N[C@@H](CCO)C(=O)O

How the values were obtained:
[1] = test system: S. aureus 502a, E. coli ML35, and C. albicans 16820; test: Cell-suspension microbicidal assay, statements across the test organisms (lowest MMC, overall ranges); assay type: cell-based; conditions: for M: peptide concentration that kill 99.9% of either S. aureus, E. coli, or C. albicans, lowest MMC value; for 99.9% kill against one of the bacterial organisms: at 8 μg/ml, the highest concentration tested
How it was run: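 Log-phase organisms (2×10^6 CFU/ml) were exposed for 2 h at 37° C. to peptide (0.062–8.0 μg/ml final) in 10 mM PIPES/5 mM glucose, pH 7.4, then serially diluted in broth and grown 24–48 h. MMC was defined as ≥99.9% killing (no pellet at 1:10^3). SI was calculated as concentration giving 3% hemolysis in PBS divided by lowest MMC.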

S. aureus 502a [2] = test: Cell-suspension microbicidal assay (MMC); assay type: cell-based, Staphylococcus aureus; conditions: for MMC, S. aureus: lowest concentration that reduced cell viability by 99.9%, 10 mM PIPES, 5 mM glucose, pH 7.4, 2 h 37° C.
How it was run: (§1)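 Log-phase microbes (2×10^6 CFU/ml) exposed to two-fold peptide dilutions (0.062-8.0 μg/ml) in 10 mM PIPES, 5 mM glucose, pH 7.4, 2 h at 37 °C, then diluted 1:10 to 1:10^6 in broth and grown 24-48 h. MMC is the lowest concentration giving ≥99.9% killing (no pellet at 1:10^3).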

C. albicans 16820 = test: Cell-suspension microbicidal assay (MMC); assay type: cell-based, Candida albicans; conditions: for MMC, C. albicans: lowest concentration that reduced cell viability by 99.9%, 10 mM PIPES, 5 mM glucose, pH 7.4, 2 h 37° C.
How it was run: as §1

E. coli ML35 [3] = test: Cell-suspension microbicidal assay (MMC); assay type: cell-based, Escherichia coli; conditions: for MMC, E. coli: lowest concentration that reduced cell viability by 99.9%, 10 mM PIPES, 5 mM glucose, pH 7.4, 2 h 37° C.
How it was run: as §1

[4] = biological target: T1, recombinant β-galactosidase (Escherichia coli, UniProt P00722); test: Inhibition of purified β-galactosidase (ONPG hydrolysis); assay type: biochemical
T1 construct: gift from Dr. Donald P. Satchell, University of California, Irvine, Department of Pathology
Procedure: Dose-dependent rates of ONPG hydrolysis were determined using 10 nM of purified β-galactosidase.
The effect of each peptide on β-galactosidase-dependent ONPG hydrolysis was determined by incubating 0-4 μg/ml of each peptide with recombinant β-galactosidase (a gift from Dr. Donald P. Satchell, University of California, Irvine, Department of Pathology) and 3 mM ONPG as described above.

E. coli ML35 [5] = test: Membrane permeabilization assay (ONPG hydrolysis); assay type: cell-based, Escherichia coli; conditions: for ONPG hydrolysis: rates at 1 μg/ml concentration of each peptide
How it was run: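 ONPG hydrolysis by log-phase E. coli ML35 (1×10^6 CFU/ml) in 10 mM PIPES pH 7.4 with 3 mM ONPG, peptides at 0-8.0 μg/ml final; A405 followed for 60 min. Control: 0-4 μg/ml peptide incubated with recombinant β-galactosidase and 3 mM ONPG.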

E. coli ML35 [6] = test: Bactericidal activity in divalent cations (CaCl2, MgCl2); assay type: cell-based, Escherichia coli
Procedure: (§2) To determine the effects of serum, salt, calcium chloride and magnesium chloride on microbicidal activities, peptide activities were determined in assays containing varying ionic strength, divalent cations, and serum. The effect of serum on staphylocidal activity of each peptide was determined by incubating 1×10^6 CFU/ml of S. aureus 502a with increasing peptide concentrations (0.5-4 μg/ml) in 10 mM PIPES, pH 7.4, containing 10% normal human serum for 2 h at 37° C. The effect of sodium chloride on staphylocidal activities was assessed with 5 μg/ml of each peptide in 10 mM PIPES, pH 7.4, containing varying concentrations of sodium chloride (0-160 mM). Effects of divalent cations, CaCl2, or MgCl2 (0-5.6 mM) were assessed in microbicidal assays against E. coli ML35. Bactericidal activities were determined by colony counting (see Example II), and microbicidal potencies were expressed as percent killing as follows:
(§3) [formula] where A=surviving bacteria (CFU/ml) after initial incubation with each peptide in buffer containing serum, salt, or divalent cations and Ao=bacterial CFU/ml in the “no-peptide” controls.

S. aureus 502a [7] = assay type: cell-based, Staphylococcus aureus; conditions: 502a
Procedure: Dose-dependent staphylocidal activity of each peptide was determined in assays containing 10% normal human serum. Percentages of killing are relative to activities of peptide-containing incubations in which serum was omitted.
as §2, §3

[8] = test system: S. aureus 502a, E. coli ML35, C. albicans 16820, and C. neoformans 271a; test: Agar diffusion assay, statements across the test organisms; assay type: cell-based; conditions: against E. coli, FIG. 18A-D
Procedure: Briefly, 10-μl wells were bored in a 9-cm^2 plate of agarose, buffered with 10 mM 1,4-piperazinebis(ethanesulfonic acid) (PIPES), pH 7.4, containing 5 mM glucose, and seeded with 1×10^6 mid-log phase cells. Five-μl aliquots of peptides, dissolved in 0.01% HOAc at 10-300 μg/ml, were added to each well. After incubation at 37° C. for 2 h, the seeded agar was overlaid with molten agarose containing 6% trypticase soy broth (for bacteria) or Sabouraud dextrose broth (for fungi). Plates were incubated at 37° C. for 18-24 h, and antimicrobial activity was determined by measuring the diameter of clearing around each well.

human erythrocytes = test: Hemolysis assay; assay type: cell-based; conditions: peptide concentration that causes 3% hemolysis, calculated from dose-dependent hemolysis plot over 0.3-3 μg/ml in PBS
How it was run: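 Human RBC (2% final) in PBS pH 7.4, with or without 10% serum, incubated 1 h at 37 °C with peptide at 0.3-100 μg/ml final; supernatant A405 read, lysis relative to 1% NP-40. Selectivity index = concentration giving 3% hemolysis in PBS divided by lowest MMC.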

S. aureus 502a [9] = assay type: cell-based, Staphylococcus aureus; conditions: physiologic salt / various concentrations of salt; FIG. 6
Procedure: The activity of each peptide (5 μg/ml) was determined in assays containing increasing concentrations of sodium chloride. Staphylocidal activities were expressed as percentages of killing obtained in the absence of additional NaCl.
as §2, §3

T1 sequence (P00722 2-1024): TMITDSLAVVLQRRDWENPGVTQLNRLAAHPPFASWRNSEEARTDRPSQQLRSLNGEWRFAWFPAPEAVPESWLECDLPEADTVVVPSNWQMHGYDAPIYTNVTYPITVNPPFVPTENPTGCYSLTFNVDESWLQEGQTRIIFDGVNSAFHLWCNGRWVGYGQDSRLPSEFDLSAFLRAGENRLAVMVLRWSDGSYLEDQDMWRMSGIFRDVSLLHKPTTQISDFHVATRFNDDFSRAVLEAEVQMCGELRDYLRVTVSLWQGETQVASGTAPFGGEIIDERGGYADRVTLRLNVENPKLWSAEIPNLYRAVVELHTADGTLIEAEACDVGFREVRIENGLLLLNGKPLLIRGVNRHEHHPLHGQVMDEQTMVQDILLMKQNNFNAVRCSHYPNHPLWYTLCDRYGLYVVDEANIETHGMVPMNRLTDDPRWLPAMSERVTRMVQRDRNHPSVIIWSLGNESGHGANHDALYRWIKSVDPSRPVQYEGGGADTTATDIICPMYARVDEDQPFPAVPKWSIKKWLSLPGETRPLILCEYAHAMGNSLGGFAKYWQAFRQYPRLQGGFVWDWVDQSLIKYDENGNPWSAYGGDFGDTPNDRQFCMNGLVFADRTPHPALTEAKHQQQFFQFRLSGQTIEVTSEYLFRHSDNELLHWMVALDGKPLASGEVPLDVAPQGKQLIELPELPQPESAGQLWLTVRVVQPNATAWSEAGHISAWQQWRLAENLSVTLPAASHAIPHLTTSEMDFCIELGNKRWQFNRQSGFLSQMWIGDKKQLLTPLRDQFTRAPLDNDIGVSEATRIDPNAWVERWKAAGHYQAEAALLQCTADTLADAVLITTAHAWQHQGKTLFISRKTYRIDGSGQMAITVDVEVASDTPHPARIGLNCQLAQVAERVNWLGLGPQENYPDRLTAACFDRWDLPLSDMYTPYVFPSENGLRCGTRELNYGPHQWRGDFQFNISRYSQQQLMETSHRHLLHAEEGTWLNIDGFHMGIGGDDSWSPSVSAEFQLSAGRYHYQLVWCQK

Row | Structure (SMILES) | M [1] | MMC, S. aureus (S. aureus 502a [2]) | MMC, C. albicans (C. albicans 16820) | MMC, E. coli (E. coli ML35 [3]) | ONPG hydrolysis (E. coli ML35 [5]) | 99.9% kill against one of the bacterial organisms [1] | effect of salt on microbicidal activity (in words) (S. aureus 502a [9]) | also measured
1 | CC(C)[C@@H]1NC(=O)[C@@H]2CSSC[C@H](NC(=O)[C@H](CCCNC(=N)N)NC(=O)[C@@H](NC(=O)CNC(=O)CN)CSSC[C@@H](C(=O)N[C@@H](CCCNC(=N)N)C(=O)N[C@@H](CCCNC(=N)N)C(N)=O)NC1=O)C(=O)N[C@@H](Cc1ccc(O)cc1)C(=O)N[C@H]1CSSC[C@H](NC(=O)[C@H](Cc3ccccc3)NC(=O)[C@H](CCCNC(=N)N)NC(=O)[C@H](CCCNC(=N)N)NC(=O)[C@H](CCCNC(=N)N)NC1=O)C(=O)N[C@@H](C(C)C)C(=O)N2 [3cys 2:2 PG-1-NH] (H-GGCRCYCRRRFCVCVCRR-NH2; disulfide 3-16, 5-14, 7-12; N-terminus assumed) | 0.25 µg/mL | 0.3 µg/mL | 1.5 µg/mL | 1.0 µg/mL | 15.3 (A405/sec) · 10^−5 |  |  | fold higher activity against S. aureus than 3cys 3:1 PG-1-NH (S. aureus 502a [2]; from MMC, Table 2): 6-7 fold; fold higher activity against C. albicans than 3cys 3:1 PG-1-NH (C. albicans 16820; from MMC, Table 2): 2-3 fold; inhibition of β-galactosidase activity ([4]; peptide 0-4 μg/ml, concentration not given, FIG. 10): potent inhibitor
2 | CC(C)C[C@H](NC(=O)[C@@H]1CSSC[C@H](NC(=O)[C@H](CCCNC(=N)N)NC(=O)[C@H](C)NC(=O)[C@@H](NC(=O)CNC(=O)[C@@H](N)CCCNC(=N)N)C(C)C)C(=O)N[C@@H](CC(C)C)C(=O)N[C@H]2CSSC[C@H](NC(=O)[C@H](C(C)C)NC(=O)CNC(=O)[C@H](CCCNC(=N)N)NC(=O)[C@H](CCCNC(=N)N)NC2=O)C(=O)N[C@@H](CCCNC(=N)N)C(=O)N1)C(=O)N[C@@H](C)C(=O)N[C@@H](CCCNC(=N)N)C(N)=O [5:3 aRTD-3-NH] (H-RGVARCLCRRGVCRCLAR-NH2; disulfide 6-15, 8-13; N-terminus assumed) | 1 µg/mL | 1.0 µg/mL | 2.3 µg/mL |  | 3.9 (A405/sec) · 10^−5 |  |  | effect of divalent cations on bactericidal activity (in words) (E. coli ML35 [6]; various concentrations of divalent cations): completely inhibited; fold lower activity against C. albicans than RTD-3 and PG-1 (C. albicans 16820; from MMC, Table 2): 2-3 fold; fold lower activity against E. coli than RTD-3 and PG-1 (E. coli ML35 [3]; from MMC, Table 2): 2-3 fold; inhibition of bactericidal activity in serum (S. aureus 502a [7]): 20-50%
3 | CC[C@H](C)[C@@H]1NC(=O)[C@@H]2CSSC[C@H](NC(=O)[C@H](CCCNC(=N)N)NC(=O)[C@@H]3CSSC[C@H](NC1=O)C(=O)N[C@@H]([C@@H](C)O)C(=O)N[C@@H](CCCNC(=N)N)C(=O)NCC(=O)N[C@@H](Cc1ccccc1)C(=O)N3)C(=O)N[C@@H]([C@@H](C)CC)C(=O)N[C@H]1CSSC[C@H](NC(=O)[C@H](Cc3ccccc3)NC(=O)CNC(=O)[C@H](CCCNC(=N)N)NC(=O)[C@H]([C@@H](C)O)NC1=O)C(=O)N[C@@H](CCCNC(=N)N)C(=O)N2 [RTD-2] (cyclo(CICTRGFCRCICTRGFCR); disulfide 1-10, 3-8, 12-17) | 1.5 µg/mL | 1.5 µg/mL | 3.0 µg/mL | 2.3 µg/mL | 6.3 (A405/sec) · 10^−5 |  |  | reduction of the rate of ONPG hydrolysis by purified β-galactosidase ([4]; 2 μg/ml, relative to incubations without peptide): 80%; reduction of the rate of ONPG hydrolysis on addition of RTD-2 (E. coli ML35 [5]; RTD-2 1.0 μg/ml final added after 30 min to E. coli permeabilized with 1 μg/ml RTD-1, FIG. 11B): approximately 30%
4 | CC[C@H](C)[C@@H]1NC(=O)[C@@H]2CSSC[C@H](NC(=O)[C@H](CCCNC(=N)N)NC(=O)[C@@H](NC(=O)[C@H](Cc3ccccc3)NC(=O)CN)CSSC[C@@H](C(=O)N[C@H](C(=O)N[C@@H](CCCNC(=N)N)C(=O)N[C@@H](CCO)C(=O)O)[C@@H](C)O)NC1=O)C(=O)N[C@@H](CC(C)C)C(=O)N[C@H]1CSSC[C@H](NC(=O)[C@H](C(C)C)NC(=O)CNC(=O)[C@H](CCCNC(=N)N)NC(=O)[C@H](CCCNC(=N)N)NC1=O)C(=O)N[C@@H](CCCNC(=N)N)C(=O)N2 [aRTD-1-Hse] (H-GFCRCLCRRGVCRCICTR[hSer]-OH; disulfide 3-16, 5-14, 7-12 (inferred); N-terminus and C-terminus assumed) |  |  |  |  |  |  |  | antimicrobial activity compared with synthetic / native RTD-1 [8]: more antimicrobial than native RTD-1
5 | CC[C@H](C)[C@@H]1NC(=O)[C@@H]2CSSC[C@H](NC(=O)[C@H](CCCNC(=N)N)NC(=O)[C@@H](NC(=O)[C@H](Cc3ccccc3)NC(=O)CN)CSSC[C@@H](C(=O)N[C@H](C(=O)N[C@@H](CCCNC(=N)N)C(=O)O)[C@@H](C)O)NC1=O)C(=O)N[C@@H](CC(C)C)C(=O)N[C@H]1CSSC[C@H](NC(=O)[C@H](C(C)C)NC(=O)CNC(=O)[C@H](CCCNC(=N)N)NC(=O)[C@H](CCCNC(=N)N)NC1=O)C(=O)N[C@@H](CCCNC(=N)N)C(=O)N2 [aRTD-1-OH] (H-GFCRCLCRRGVCRCICTR-OH; disulfide 3-16, 5-14, 7-12; N-terminus assumed) | 4 µg/mL | 4.5 µg/mL | 4.0 µg/mL |  | 2.4 (A405/sec) · 10^−5 | did not achieve a 99.9% kill | intermediate | fold higher MMC than the native cyclic peptide ([1]; de-cyclized analog versus native θ-defensin, three test organisms): 4 fold; H (human erythrocytes): 15.0 µg/mL
6 | CC[C@H](C)[C@@H]1NC(=O)[C@@H]2CSSC[C@H](NC(=O)[C@H](CCCNC(=N)N)NC(=O)[C@@H](NC(=O)[C@H](Cc3ccccc3)NC(=O)CN)CSSC[C@@H](C(=O)N[C@H](C(=O)N[C@@H](CCCNC(=N)N)C(=O)O)[C@@H](C)O)NC1=O)C(=O)N[C@@H]([C@@H](C)CC)C(=O)N[C@H]1CSSC[C@H](NC(=O)[C@H](Cc3ccccc3)NC(=O)CNC(=O)[C@H](CCCNC(=N)N)NC(=O)[C@H]([C@@H](C)O)NC1=O)C(=O)N[C@@H](CCCNC(=N)N)C(=O)N2 [aRTD-2-OH] (H-GFCRCICTRGFCRCICTR-OH; disulfide 3-16, 5-14, 7-12; N-terminus assumed) | 1.5 µg/mL | 1.5 µg/mL | 3.0 µg/mL |  | 4.3 (A405/sec) · 10^−5 | did not achieve a 99.9% kill | most inhibited | inhibition of bactericidal activity by calcium chloride (E. coli ML35 [6]; physiologic concentration of calcium chloride (1.4 mM)): completely ablated; fold reduction of potency against E. coli versus native cyclic peptide (E. coli ML35 [3]; versus RTD-2): at least 3 fold
